Results from patent publication US4808620A, “Pyrazolopyridine compounds, their preparation and use as platelet aggregation inhibitors” (Yoshitomi Pharmaceutical Industries, Ltd., priority 1986, dated 1989).
Converted amounts (≈) assume the structure as drawn.

How the values were obtained:
[1] = system: Chronic Inflammation (adjuvant arthritis); assay: Effect on Chronic Inflammation (adjuvant arthritis, method of Newbould); assay type: in vivo, male Lewis rats; details: Rattus norvegicus, po; adjuvant arthritis rats, p.o. once a day from 15th to 24th day, decrease of foot volume vs 15th day; read-out: MED, Pharmacological Experiment (3), chronic inflammation
Method: Effect on Chronic Inflammation The experiment was performed by employing 10-week old male Lewis rats according to the method of Newbould described in Brit. J. Pharmacol., vol. 21, p. 127 (1963). Dead tubercle bacilli ([…] H5 type) suspended in liquid paraffin (0.5 mg/0.1 ml) was inoculated as adjuvant into the skin at the base of tail. Animals with arthritis were chosen on the 15th day and divided into groups of seven. Test compound solution (5 ml/kg) was orally administered once a day from 15th day of 24th day consecutively. The rate of change of the foot volume on the 24th day against the foot volume on the 15th day was calculated, and the inhibitory rate was determined as compared with the control group. The minimun effective dose (MED, mg/kg) was obtained based on the dose indicating the decrease of foot volume than the foot volume on the 15th day.

[2] = system: stretch symptom induced by phenylquinone; assay: Analgesic Activity (phenylquinone-induced stretch symptom, method of Hendershot et al); assay type: in vivo, Male ddY mice; details: Mus musculus, po; mice, p.o., 1 h before 0.02% phenylquinone i.p., stretch frequency for 20 min; read-out: ED50, Pharmacological Experiment (1), analgesic activity
Method: The experiment was performed according to the method of Hendershot et al described in J. Pharmacol. Exp. Ther., vol. 125, P. 237 (1959). Male ddY mice weighing 18-25 g were used in groups of 6-18. One hour after the oral administration of test compound solution (10 ml/kg), 10 ml/kg of 0.02% aqueous phenylquinone solution was intraperitoneally administered to the animal. The frequency of stretch symptom thus induced measured for 20 minutes. The inhibitory rate was determined in comparison with the control group and the 50% effective dose (ED50, mg/kg) was caluculated according to the linear regression method.

[3] = system: Acute Inflammation (carrageenin); assay: Effect on Acute Inflammation (carrageenin hind paw, method of Winter et al); assay type: in vivo, Male Donryu rats; details: Rattus norvegicus, po; rats, p.o., 1 h before 1% carrageenin, foot volume 3 h later; read-out: ED50, Pharmacological Experiment (2), acute inflammation
Method: Effect on Acute Inflammation
The experiment was performed according to the method of Winter et al described in Proc. Soc. Exp. Biol. Med., vol. 111, p. 544 (1962). Male Donryu rats weighing about 140 g which was fastened for 18 hours were used in groups of five animals. Test compound solution was orally administered and one hour later, 0.05 ml of saline solution containing 1% carrageenin was injected into the right hind paw. Three hours later, the foot volume was measured by the water displacement method. The rate of increase against the foot volume before the injection of carrageenin was calculated, and the inhibitory rate was determined as compared with the control group. The 50% effective dose (ED50, mg/kg) was determined by the linear regression method.

[4] = system: Platelet Aggregation induced by Arachidonic Acid; assay: Effect on the Platelet Aggregation induced by Arachidonic Acid; assay type: cell-based, Male Hartley guinea pigs; details: Cavia porcellus, guinea pig PRP, 37° C., arachidonic acid 5×10^-4 M, maximum aggregation value, read-out: IC50, Pharmacological Experiment (4), platelet aggregation
Method: Effect on the Platelet Aggregation induced by Arachidonic Acid
Male Hartley guinea pigs weighing 400-500 g were subjected to the abdominal operation under etherization. The citrated blood (9 volumes of blood and one volume of 3.8% sodium citrate solution) was collected from the abdominal aorta. Immediately, the blood was centrifuged at 150×g for 3 minutes to obtained platelet-rich plasma (PRP) as a supernatant. The remaining blood was centrifuged at 1400×g for 10 minutes to obtain platelet-poor plasma (PPP) as a supernatant. The number of platelet in PRP was adjusted to 4-6×10^5 platelets/mm^3 by adding PPP thereto The platelet aggregation was measured by using a platelet aggregometer according to the method of Born et al described in J. Physiol., vol. 168, p. 178 (1963). Test compound solution was added to PRP under stirring at 1500 rpm at 37° C., and two minutes later arachidonic acid (final concentration: 5×10^-4 M) is added thereto. The change of transmittance was recorded consecutively. The transmittance was adjusted to 0 and 100% with PRP and PPP, respectively. The inhibitory rate was calculated against the control group by using the maximum aggregation value as an index, and 50% inhibitory concentration(IC50, μg/ml) was determined by the linear regression method.

IC50 [4] [µg/mL] | SMILES | minimal effective dose [1] [mg/kg] | ED50 [2] [mg/kg] | ED50 [3] [mg/kg]
1.05 (≈ 3.11 µM) | Cn1nc(-c2cc(C(C)(C)C)c(O)c(C(C)(C)C)c2)c2cccnc21 [Compound A, 3-(3,5-di-tertiarybutyl-4-hydroxyphenyl)-1-methyl-1H-pyrazolo[3,4-b]pyridine] | 0.3 | 9.5 | 70
0.09 (≈ 0.245 µM) | CC(C)(C)c1cc(-c2nn(CCO)c3ncccc23)cc(C(C)(C)C)c1O [Compound B, 3-(3,5-di-tertiarybutyl-4-hydroxyphenyl)-1-(2-hydroxyethyl)-1H-pyrazolo [3,4-b]pyridine] | 3 | 19 | 44
0.95 (≈ 2.24 µM) | CCC(=O)OCCn1nc(-c2cc(C(C)(C)C)c(O)c(C(C)(C)C)c2)c2cccnc21 [Compound C, 3-(3,5-di-tertiarybutyl-4-hydroxyphenyl)-1-(2"propionyloxyethyl)-1H-pyrazolo [3,4-]pyridine] | 0.3 | 1.1 | 8
0.12 (≈ 0.283 µM) | CCOC(=O)CCn1nc(-c2cc(C(C)(C)C)c(O)c(C(C)(C)C)c2)c2cccnc21 [Compound D, 3-(3,5-di-tertiarybutyl-4-hydroxyphenyl)-1-(2-ethoxycarbonylethyl)-1H-pyrazolo [3,4-b]pyridine] | 1 | 0.56 | 8.3

SMILES | IC50 [4] [µg/mL] | minimal effective dose [1] [mg/kg] | ED50 [2] [mg/kg] | ED50 [3] [mg/kg]
CC(=O)OCCn1nc(-c2cc(C(C)(C)C)c(O)c(C(C)(C)C)c2)c2cccnc21 [Compound E, 1-(acetoxyethyl)-3-(3,5-di-tertiarybutyl-4-hydroxyphenyl)-1H-pyrazolo[3,4-b]pyridine] | 0.9 (≈ 2.2 µM) | 0.3 | 0.35 | 14
